Assay results as given in patent publication US20240315993A1, “ANTIPARASITIC COMPOUNDS” (Intervet Inc., priority 2021, published 2024).
Read-outs that look alike come from different tables or passages of the source.

Experiments:
[1] = test system: bed bugs (Cimex lectularius); experiment: Guinea pig - efficacy against bed bug; format: in vivo
Description: (§1) Guinea pigs were locally co-infested (using an infestation device on a shaved skin area) with juvenile soft ticks (Ornithodoros moubata) and bed bugs (Cimex lectularius) before the treatment day (Day 0) to provide a baseline-negative control value. Guinea pigs were treated orally (by gavage) or subcutaneously at a dose of 5 mg/kg bodyweight of a test compound in a formulation of 10% DMF/Emulsifier+90% Aqua ad injectabilia.
(§2) Repeated local infestations with both parasites were performed at different time points after treatment. Within approximately 45 min after each infestation ten engorged ticks and ten engorged bed bugs were • collected and the percentage of dead and damaged parasites per species were • assessed approximately 24 hours following collection. The efficacy was • calculated as % of inhibition ‘killed+damaged’ parasites in a treated group in comparison to the baseline-negative control (using a modified Schneider Orelli's formula).
(§3) Results: Activity of the test compounds at different evaluation time-points (≥80% inhibition were found active): […]

[2] = test system: juvenile soft ticks (Ornithodoros moubata); experiment: Guinea pig - efficacy against argaside tick; format: in vivo
Description: as §1, §2, §3

[3] = test system: Mobile stages of sea lice (pre-adults, adults of Lepeophtheirus salmonis); experiment: Adult sea lice contact assay; settings: read-out: EC50 (sea lice inhibition, dead+damaged)
Description: Mobile stages of sea lice (i.e., pre-adults, adults of Lepeophtheirus salmonis) were exposed to seawater spiked with declining concentrations of a test compound (dissolved in a PEG sea-water mixture). Sea lice inhibition (% of dead+damaged sea lice) was assessed after approximately 1 and 24 hours of continuous exposure in comparison to a negative (solvent) control group.

[4] = test system: Rhipicephalus appendiculatus; experiment: Cattle - efficacy against multi-host ticks (Rhipicephalus appendiculatus); format: in vivo
Description: (§4) Cattle were treated subcutaneously or topically (pour-on) at a dose of 5 mg/kg bodyweight of a test compound (Day 0). As subcutaneous formulation NMP 60%/PEG300 40% was used, and as pour-on formulation DMA 92%/DEET 8% was used. Cattle of the negative control group received only the formulation excipients of both formulations (SC, pour-on).
(§5) Cattle were locally infested with 30 to 40 unfed adult ticks each of Rhipicephalus appendiculatus and Dermacenter variabilis (for both species sex ratio 1:1), by placing the ticks in an ear sleeve (R. appendiculatus) or a stockinet patch attached to the body side (D. variabilis) once before treatment, and at different time points after treatment. Free (i.e., non-attached ticks) were removed from ear sleeves/stockinet patches two days after each infestation and were excluded from the efficacy calculation.
(§6) Compounds with efficacy ≥80 percent were found active.

[5] = test system: Copepodids (juvenile sea lice stage of Lepeophtheirus salmonis); experiment: Juvenile sea lice contact assay; settings: Lepeophtheirus salmonis, read-out: Sea lice inhibition (% of dead+damaged copepodids)
Description: Copepodids (juvenile sea lice stage of Lepeophtheirus salmonis) were exposed to seawater spiked with declining concentrations of a test compound (dissolved in a DMSO sea-water mixture). Sea lice inhibition (% of dead+damaged copepodids) was assessed after approximately 24 hours of continuous exposure. The vitality of used parasites was confirmed in a negative (solvent) control group.

Rhipicephalus microplus = experiment: Cattle - efficacy against one-host tick; format: in vivo; settings: 1 mg/kg topical (Compound 4: spray solution; others: DMA 92%/DEET 8% pour-on)
Description: Cattle were infested (whole body) with up to 3000 Rhipicephalus microplus larvae two or three times per week before and after the treatment day (Day 0). Cattle of treatment groups were treated subcutaneously or topically (spray or pour-on) at a dose of 1 mg/kg bodyweight of a test compound. As subcutaneous formulation either 2-pyrrolidon 50%/Tween 80 50% or NMP 60%/PEG300 40% was used. As topical formulation either a spray solution (DMF/Emulsifier 2%/tap water 98%) (Compound 4) or a DMA 92%/DEET 8% pour-on solution (all other compounds) or a pour-on solution containing Imwitor 988 (20%)+Miglyol 840 (QS) (Compound 453 and Compound 466) or a pour-on solution containing Miglyol 840 (QS) (Compound 453) was used. Cattle of the negative control group received only the formulation excipients of the respective administration route.
Fully engorged female ticks dropping from cattle were collected daily after treatment and counted in treatment and control groups. Efficacy was expressed using the standard ADEQ analysis method (ADEQ calculation in accordance with WAAVP guidelines for evaluating the efficacy of acaricides against ticks on ruminants; Veterinary parasitology 136 (2006) 29-43). Compounds with efficacy ≥80 percent were found active/effective. Onset of efficacy means the first Day with efficacy ≥80 percent. Duration of efficacy means the last Day with efficacy ≥80 percent.

[6] = test system: larvae of Rhipicephalus microplus isolates with known resistance profiles; experiment: Tick larvae resistance assay (larval immersion test, LIT)
Description: A tick resistance assay (i.e., larval immersion test, LIT) was carried out using larvae of several Rhipicephalus microplus isolates with known resistance profiles (i.e.: fully susceptible; resistant to dieldrin, coumaphos, DDT, chlorpyriphos, flumethrin, cypermethrin, amitraz, fluazuron).
Tick larvae (Rhipicephalus microplus) were immersed for approximately 3 minutes in test compound solution. Tick mortality was assessed approximately 24 hours after contact exposure. The vitality of used parasites was confirmed in negative control groups (i.e., an untreated control and a solvent control).

Dermacenter variabilis = experiment: Cattle - efficacy against multi-host ticks (Dermacenter variabilis); format: in vivo
Description: as §4, §5, §6

Lepeophtheirus salmonis = experiment: Salmon - in vivo efficacy against sea lice using gavage administration; settings: po, 168 h, read-out: therapeutic efficacy against (pre-)adult sea lice (% reduction vs control), salmon, 5 mg/kg once by gavage, day -28 infestation, counted day 7
[7] = 5 mg/kg subcutaneous, after 7 days
[8] = 5 mg/kg subcutaneous, after 10 days
[9] = 5 mg/kg subcutaneous, after 14 days
[10] = 5 mg/kg subcutaneous, after 17 days
[11] = 5 mg/kg subcutaneous, re-infested after 7 days
[12] = 5 mg/kg subcutaneous, re-infested after 14 days
[13] = 5 mg/kg subcutaneous, re-infested after 21 days
[14] = 5 mg/kg subcutaneous, therapeutic, Day 2
[15] = 5 mg/kg topical pour-on, re-infested after 7 days
[16] = 5 mg/kg topical pour-on, re-infested after 14 days
[17] = 5 mg/kg topical pour-on, re-infested after 21 days
[18] = 5 mg/kg topical pour-on, re-infested after 28 days
[19] = 5 mg/kg, at least until Day 10, both administration routes (oral, subcutaneous)

O=C(Nc1ccc(F)cc1)c1cc(NC(=O)[C@H]2[C@H](c3cc(Cl)cc(Cl)c3)C2(Cl)Cl)ccc1F [Compound 446]
3 days: onset of efficacy (first Day with efficacy ≥80 percent) (Rhipicephalus microplus)
0.353 ppm: LC50 ([6]; isolate resistant to Coumaphos, Flumethrin, Cypermethrin)
0.463 ppm: LC50 ([6]; isolate resistant to DDT, Dieldrin, Coumaphos, Chlorpyriphos)
≤ 10 nM: EC50 [3]
immediate activity: activity against bed bugs (≥80% inhibition, killed+damaged) ([1]; 5 mg/kg oral, Day 0) | activity against bed bugs (≥80% inhibition, killed+damaged) ([1]; 5 mg/kg subcutaneous, Day 0) | activity against tick nymphs (≥80% inhibition, killed+damaged) ([2]; 5 mg/kg oral, Day 0) | activity against tick nymphs (≥80% inhibition, killed+damaged) ([2]; 5 mg/kg subcutaneous, Day 0)
therapeutic efficacy: efficacy ≥80 percent against Rhipicephalus appendiculatus [4, 14] | efficacy ≥80 percent against Dermacenter variabilis (Dermacenter variabilis; [14]) | efficacy ≥80 percent against Dermacenter variabilis (Dermacenter variabilis; 5 mg/kg topical pour-on, therapeutic, Day 2)
0.322 ppm: LC50 ([6]; isolate resistant to Dieldrin, Coumaphos, Fluazuron)
0.31 ppm: LC50 ([6]; isolate resistant to DDT, Dieldrin, Coumaphos)
activity: activity against bed bugs (≥80% inhibition, killed+damaged) ([1]; 5 mg/kg oral, after 7 days) | activity against bed bugs (≥80% inhibition, killed+damaged) [1, 7] | activity against bed bugs (≥80% inhibition, killed+damaged) [1, 8] | activity against bed bugs (≥80% inhibition, killed+damaged) [1, 9] | activity against bed bugs (≥80% inhibition, killed+damaged) [1, 10] | activity against bed bugs (≥80% inhibition, killed+damaged) ([1]; 5 mg/kg subcutaneous, after 21 days) | activity against bed bugs (≥80% inhibition, killed+damaged) ([1]; 5 mg/kg subcutaneous, after 24 days) | activity against tick nymphs (≥80% inhibition, killed+damaged) [2, 7] | activity against tick nymphs (≥80% inhibition, killed+damaged) [2, 8] | activity against tick nymphs (≥80% inhibition, killed+damaged) [2, 9] | activity against tick nymphs (≥80% inhibition, killed+damaged) [2, 10]
0.48 ppm: LC50 ([6]; isolate resistant to Coumaphos, Flumethrin, Cypermethrin, Amitraz)
100%: inhibition at 0.001 µM ([5]; 24 h)
0.344 ppm: LC50 ([6]; isolate: Fully susceptible)
47 days: duration of efficacy (last Day with efficacy ≥80 percent) (Rhipicephalus microplus)
longer duration of efficacy: duration of efficacy, subcutaneous compared with oral administration ([2]; 5 mg/kg, ticks and bed bugs)
prophylactic efficacy: efficacy ≥80 percent against Rhipicephalus appendiculatus [4, 11] | efficacy ≥80 percent against Rhipicephalus appendiculatus [4, 12] | efficacy ≥80 percent against Rhipicephalus appendiculatus [4, 13] | efficacy ≥80 percent against Rhipicephalus appendiculatus [4, 15] | efficacy ≥80 percent against Rhipicephalus appendiculatus [4, 16] | efficacy ≥80 percent against Rhipicephalus appendiculatus [4, 17] | efficacy ≥80 percent against Rhipicephalus appendiculatus [4, 18] | efficacy ≥80 percent against Dermacenter variabilis (Dermacenter variabilis; [11]) | efficacy ≥80 percent against Dermacenter variabilis (Dermacenter variabilis; [12]) | efficacy ≥80 percent against Dermacenter variabilis (Dermacenter variabilis; [13]) | efficacy ≥80 percent against Dermacenter variabilis (Dermacenter variabilis; 5 mg/kg subcutaneous, re-infested after 28 days) | efficacy ≥80 percent against Dermacenter variabilis (Dermacenter variabilis; [15]) | efficacy ≥80 percent against Dermacenter variabilis (Dermacenter variabilis; [16]) | efficacy ≥80 percent against Dermacenter variabilis (Dermacenter variabilis; [17]) | efficacy ≥80 percent against Dermacenter variabilis (Dermacenter variabilis; [18]) | efficacy ≥80 percent against Dermacenter variabilis (Dermacenter variabilis; 5 mg/kg topical pour-on, re-infested after 35 days)

O=C(Nc1ccc(F)cc1F)c1cc(NC(=O)[C@H]2[C@H](c3cc(F)c(F)c(F)c3)C2(Cl)Cl)ccc1Cl [Compound 451]
activity: activity against bed bugs (≥80% inhibition, killed+damaged) ([1]; 5 mg/kg oral, after 7 days) | activity against bed bugs (≥80% inhibition, killed+damaged) ([1]; 5 mg/kg oral, after 10 days) | activity against bed bugs (≥80% inhibition, killed+damaged) [1, 7] | activity against bed bugs (≥80% inhibition, killed+damaged) [1, 8] | activity against tick nymphs (≥80% inhibition, killed+damaged) ([2]; 5 mg/kg oral, after 7 days) | activity against tick nymphs (≥80% inhibition, killed+damaged) ([2]; 5 mg/kg oral, after 10 days) | activity against tick nymphs (≥80% inhibition, killed+damaged) [2, 7] | activity against tick nymphs (≥80% inhibition, killed+damaged) [2, 8]
immediate activity: activity against bed bugs (≥80% inhibition, killed+damaged) ([1]; 5 mg/kg oral, Day 0) | activity against bed bugs (≥80% inhibition, killed+damaged) ([1]; 5 mg/kg subcutaneous, Day 0) | activity against tick nymphs (≥80% inhibition, killed+damaged) ([2]; 5 mg/kg oral, Day 0) | activity against tick nymphs (≥80% inhibition, killed+damaged) ([2]; 5 mg/kg subcutaneous, Day 0)
100%: effective to control bed bugs [1, 19] | effective to control ticks [2, 19] | inhibition at 0.001 µM ([5]; 1 nM in seawater, ~24 h)
80%: inhibition in vivo at 5 mg/kg (Lepeophtheirus salmonis)
≤ 10 nM: EC50 ([3]; pre-adults/adults, assessed after ~1 and 24 h)
